The target of data set [1] is T1, Human ACC1 (Homo sapiens, UniProt Q13085).
T1 construct: His tag (from the pFAST-BacHTc vector); own knowledge: N-terminal 6xHis with TEV site; made in house; host or cells: SF-9 insect cells, recombinant baculovirus BAC-ACC1
Kind of data set: Measurement of ACC1 inhibitory activity (recombinant enzyme, malachite green absorbance). Type of data set: biochemical. The note with it: recombinant human ACC1 8 μg/ml; 30° C.; 200 μM ATP, 200 μM Acetyl-CoA; absorbance 620 nm. On the procedure:
The ACC1 inhibitory action of the compound of the present invention was evaluated by the following method.
Human ACC1 gene was cloned by PCR using a human liver cDNA library (Clontech) as a template and Primer 1 and Primer 2 shown below. Primer 1 and Primer 2 were prepared by adding SalI, NotI restriction enzyme recognition sequence based on the information of the base sequence (Genbank Accession U19822) of human ACC1 gene.
PCR was performed using a Pyrobest DNA polymerase (TAKARA BIO INC.) The obtained PCR product was cloned to pT7 Blue vector (Novagen) and, after confirmation of the base sequence, digested with restriction enzymes SalI and NotI. The obtained DNA fragment was inserted to pFAST-BacHTc (Invitrogen) digested with restriction enzymes SalI and NotI to give expression plasmid ACC1/pFAST-BacHTc.
Using the expression plasmid and BAC-TO-BAC Baculovirus Expression System (Invitrogen), virus stock BAC-ACC1 of recombinant Baculovirus was prepared.
SF-9 cells (Invitrogen) were inoculated to a medium (1 L) for insect cells (Sf-900IISFM medium (Invitrogen) containing 10% fetal bovine serum (Trace), 50 mg/L Gentamicin (Invitrogen) and 0.1% Pluronic F-68 (Invitrogen)) at 1×10^6 cells/mL, and cultured with shaking at 27° C., 100 rpm in a 2 L Erlenmeyer flask.
After 24 hr of the culture, recombinant Baculovirus BAC-ACC1 (10 mL) was added, and the cells were further cultured for 3 days. The culture medium was centrifuged at 1000×g for 5 min to give virus-infected cells. The cells were washed with phosphate buffered saline (Invitrogen), and centrifuged under the same conditions, and the obtained cells were cryopreserved at −80° C.
The cryopreserved cells were thawed in ice and suspended in 100 mL of 25 mM HEPES buffer (pH 7.5) containing 10% Glycerol, 0.13 M NaCl, 1 mM EDTA, 25 mM Sodium β-Glycerophosphate and 1 mM Sodium Orthovanadate, and supplemented with Complete Protease Inhibitor (Nippon Boehringer Ingelheim Co., Ltd.). The obtained suspension was homogenized 3 times in a polytron homogenizer (Kinematica) at 20,000 rpm for 30 sec. The obtained cell disruption solution was clarified by centrifugation at 185700×g for 50 min, and filtered through a 0.45 μm filter. The filtrate was passed through a column packed with 12 mL of Ni-NTA Super Flow Gel (QUIAGEN) at a flow rate of about 5 mL/min. The column was washed with buffer A (50 mM HEPES (pH 7.5) containing 0.3 M NaCl), further washed with buffer A containing 20 mM Imidazole, and eluted with buffer A containing 100 mM Imidazole. The eluate was concentrated with Vivaspin 20 (Vivascience) with a molecular weight cut off of 30K. The obtained concentrate was dialyzed against Sephadex G-25 (Amersham Biosciences, 358 ml) equilibrated with 50 mM HEPES (pH 7.5) containing 10 mM MgCl2, 2 mM Dithiothreitol, 10 mM Tripotassium Citrate and 0.3 M NaCl. The inner dialysate was concentrated with Vivaspin 20 (Vivascience) with a molecular weight cut off of 30K, and the concentrate was filtered through a 0.22 μm filter to give ACC1. The obtained ACC1 was cryopreserved at −80° C.
ACC1 (0.93 mg/ml) obtained in the above-mentioned (2) was diluted with an enzyme reaction buffer (50 mM HEPES (pH 7.5), 10 mM MgCl2, 10 mM Tripotassium Citrate, 2 mM Dithiothreitol, 0.75 mg/ml Fatty acid free BSA) to concentration of 8 μg/ml, and the mixture was added to each well of 384 well assay plate (Nunc 265196) by 10 μl.
Thereafter, ACC1 inhibitory rate (%) was measured in the same manner as in the below-mentioned Experimental Example 2-(3), and IC50 value was calculated.
ACC2 (Nd) (1.1 mg/ml) obtained in the above-mentioned (2) was diluted with an enzyme reaction buffer (50 mM HEPES (pH 7.5), 10 mM MgCl2, 10 mM Tripotassium Citrate, 2 mM Dithiothreitol, 0.75 mg/ml Fatty acid free BSA) to a concentration of 6.4 μg/ml, and the mixture was added to each well of a 384 well assay plate (Nunc 265196) by 10 μl. […]

Data set [2] deals with T2, Human ACC2 (Nd, N terminal deleted) (Homo sapiens, UniProt O00763).
T2 construct: His tag (from the pFAST-BacHTa vector); own knowledge: N-terminal 6xHis with TEV site; made in house; host or cells: SF-9 insect cells, recombinant baculovirus BAC-ACC2 (Nd)
Kind of data set: Measurement of ACC2 inhibitory activity (recombinant ACC2 (Nd), malachite green absorbance). The note with it: recombinant human ACC2 (Nd) 6.4 μg/ml; 30° C.; 200 μM ATP, 200 μM Acetyl-CoA; absorbance 620 nm. Format: biochemical. On the procedure:
The ACC2 inhibitory action of the compound of the present invention was evaluated by the following method.
Human ACC2 gene was cloned by PCR using a human skeletal muscle cDNA library (Clontech) as a template and Primer 1 and Primer 2 shown below. Primer 1 and Primer 2 were prepared by adding SalI, XbaI restriction enzyme recognition sequences based on the information of the base sequence (Genbank Accession U89344) of human ACC2 gene.
PCR was performed using Pyrobest DNA polymerase (TAKARA BIO INC.). The obtained PCR product was cloned to pT7 Blue vector (Novagen) and, after confirmation of the base sequence, digested with restriction enzymes SalI and XbaI. The obtained DNA fragment was inserted into pFAST-BacHTa (Invitrogen) digested with restriction enzymes SalI and XbaI to give expression plasmid ACC2/pFAST-BacHTa.
PCR was performed using the expression plasmid as a template and Primer 3 and Primer 4 shown below to prepare a plasmid to be used for expression of ACC2 free of mitochondrial targeting sequence.
PCR was performed using Pyrobest-DNA polymerase (TAKARA BIO INC.). The obtained PCR product was cloned to pT7 Blue vector (Novagen) and, after confirmation of the base sequence, digested with restriction enzymes SalI and AflII. The obtained DNA fragment was inserted into pFAST-BacHTa (Invitrogen) digested with restriction enzymes SalI and AflII to give expression plasmid ACC2mito7/pFAST-BacHTa.
Using the expression plasmid and BAC-TO-BAC Baculovirus Expression System (Invitrogen), virus stock BAC-ACC2 (N terminal deleted (hereinafter Nd)) of recombinant Baculovirus was prepared.
SF-9 cells (Invitrogen) were inoculated to a medium (2 L) for insect cells (Sf-900IISFM medium (Invitrogen) containing 10% fetal bovine serum (Trace), 50 mg/L Gentamicin (Invitrogen), 0.1% Pluronic F-68 (Invitrogen)) at 0.5×10^6 cells/mL, and cultured with shaking in Wave Bioreactor (Wave) at 27° C., 20 rpm, rocking angle […], oxygen concentration 30%.
On day 4 of the culture, 3 L of the medium for insect cells was added, the rocking angle was set to 8°, and the cells were cultured. On day 5 of the culture, 100 mL of recombinant Baculovirus BAC-ACC2 (Nd) was added, 5 L of the medium for insect cells was further added, the rocking angle was set to 11°, and the cells were cultured for 3 days. The culture medium was centrifuged at 1000×g for 10 min to give virus-infected cells. The cells were washed with phosphate buffered saline (Invitrogen) and centrifuged under the same conditions. The obtained cells were cryopreserved at −80° C.
The cryopreserved cells were thawed in ice and suspended in 900 mL of 25 mM HEPES buffer (pH 7.5) containing 10% Glycerol, 0.13 M NaCl, 1 mM EDTA, 25 mM Sodium βGlycerophosphate and 1 mM Sodium Orthovanadate, and supplemented with Complete Protease Inhibitor (Nippon Boehringer Ingelheim Co., Ltd.). The obtained suspension was homogenized 3 times in a polytron homogenizer (Kinematica) at 20,000 rpm for 30 sec. The obtained cell disruption solution was clarified by centrifugation at 31000×g for 60 min, and filtered through a 0.45 μm filter. The filtrate was passed through a column packed with 60 mL of Ni-NTA Super Flow Gel (QUIAGEN) at a flow rate of about 5 mL/min. The column was washed with buffer A (50 mM HEPES (pH 7.5) containing 0.3 M NaCl), further washed with buffer A containing 20 mM Imidazole, and eluted with buffer A containing 100 mM Imidazole. The eluate was concentrated with Vivaspin 20 (Vivascience) with a molecular weight cut off of 30K. The obtained concentrate was dialyzed against 50 mM HEPES (pH 7.5) containing 10 mM MgCl2, 2[…] Dithiothreitol, 10 mM Tripotassium Citrate and 0.3 M NaCl. The inner dialysate was filtered through a 0.22 μm filter to give ACC2 (Nd). The obtained ACC2 (Nd) was cryopreserved at −80° C.
A test compound was dissolved in dimethyl sulfoxide (DMSO) and the mixture was diluted with an enzyme reaction buffer and the resulting solution (5 μl) was added to each well.

T2 sequence (O00763 117-2458 limits assumed, stated change not applied): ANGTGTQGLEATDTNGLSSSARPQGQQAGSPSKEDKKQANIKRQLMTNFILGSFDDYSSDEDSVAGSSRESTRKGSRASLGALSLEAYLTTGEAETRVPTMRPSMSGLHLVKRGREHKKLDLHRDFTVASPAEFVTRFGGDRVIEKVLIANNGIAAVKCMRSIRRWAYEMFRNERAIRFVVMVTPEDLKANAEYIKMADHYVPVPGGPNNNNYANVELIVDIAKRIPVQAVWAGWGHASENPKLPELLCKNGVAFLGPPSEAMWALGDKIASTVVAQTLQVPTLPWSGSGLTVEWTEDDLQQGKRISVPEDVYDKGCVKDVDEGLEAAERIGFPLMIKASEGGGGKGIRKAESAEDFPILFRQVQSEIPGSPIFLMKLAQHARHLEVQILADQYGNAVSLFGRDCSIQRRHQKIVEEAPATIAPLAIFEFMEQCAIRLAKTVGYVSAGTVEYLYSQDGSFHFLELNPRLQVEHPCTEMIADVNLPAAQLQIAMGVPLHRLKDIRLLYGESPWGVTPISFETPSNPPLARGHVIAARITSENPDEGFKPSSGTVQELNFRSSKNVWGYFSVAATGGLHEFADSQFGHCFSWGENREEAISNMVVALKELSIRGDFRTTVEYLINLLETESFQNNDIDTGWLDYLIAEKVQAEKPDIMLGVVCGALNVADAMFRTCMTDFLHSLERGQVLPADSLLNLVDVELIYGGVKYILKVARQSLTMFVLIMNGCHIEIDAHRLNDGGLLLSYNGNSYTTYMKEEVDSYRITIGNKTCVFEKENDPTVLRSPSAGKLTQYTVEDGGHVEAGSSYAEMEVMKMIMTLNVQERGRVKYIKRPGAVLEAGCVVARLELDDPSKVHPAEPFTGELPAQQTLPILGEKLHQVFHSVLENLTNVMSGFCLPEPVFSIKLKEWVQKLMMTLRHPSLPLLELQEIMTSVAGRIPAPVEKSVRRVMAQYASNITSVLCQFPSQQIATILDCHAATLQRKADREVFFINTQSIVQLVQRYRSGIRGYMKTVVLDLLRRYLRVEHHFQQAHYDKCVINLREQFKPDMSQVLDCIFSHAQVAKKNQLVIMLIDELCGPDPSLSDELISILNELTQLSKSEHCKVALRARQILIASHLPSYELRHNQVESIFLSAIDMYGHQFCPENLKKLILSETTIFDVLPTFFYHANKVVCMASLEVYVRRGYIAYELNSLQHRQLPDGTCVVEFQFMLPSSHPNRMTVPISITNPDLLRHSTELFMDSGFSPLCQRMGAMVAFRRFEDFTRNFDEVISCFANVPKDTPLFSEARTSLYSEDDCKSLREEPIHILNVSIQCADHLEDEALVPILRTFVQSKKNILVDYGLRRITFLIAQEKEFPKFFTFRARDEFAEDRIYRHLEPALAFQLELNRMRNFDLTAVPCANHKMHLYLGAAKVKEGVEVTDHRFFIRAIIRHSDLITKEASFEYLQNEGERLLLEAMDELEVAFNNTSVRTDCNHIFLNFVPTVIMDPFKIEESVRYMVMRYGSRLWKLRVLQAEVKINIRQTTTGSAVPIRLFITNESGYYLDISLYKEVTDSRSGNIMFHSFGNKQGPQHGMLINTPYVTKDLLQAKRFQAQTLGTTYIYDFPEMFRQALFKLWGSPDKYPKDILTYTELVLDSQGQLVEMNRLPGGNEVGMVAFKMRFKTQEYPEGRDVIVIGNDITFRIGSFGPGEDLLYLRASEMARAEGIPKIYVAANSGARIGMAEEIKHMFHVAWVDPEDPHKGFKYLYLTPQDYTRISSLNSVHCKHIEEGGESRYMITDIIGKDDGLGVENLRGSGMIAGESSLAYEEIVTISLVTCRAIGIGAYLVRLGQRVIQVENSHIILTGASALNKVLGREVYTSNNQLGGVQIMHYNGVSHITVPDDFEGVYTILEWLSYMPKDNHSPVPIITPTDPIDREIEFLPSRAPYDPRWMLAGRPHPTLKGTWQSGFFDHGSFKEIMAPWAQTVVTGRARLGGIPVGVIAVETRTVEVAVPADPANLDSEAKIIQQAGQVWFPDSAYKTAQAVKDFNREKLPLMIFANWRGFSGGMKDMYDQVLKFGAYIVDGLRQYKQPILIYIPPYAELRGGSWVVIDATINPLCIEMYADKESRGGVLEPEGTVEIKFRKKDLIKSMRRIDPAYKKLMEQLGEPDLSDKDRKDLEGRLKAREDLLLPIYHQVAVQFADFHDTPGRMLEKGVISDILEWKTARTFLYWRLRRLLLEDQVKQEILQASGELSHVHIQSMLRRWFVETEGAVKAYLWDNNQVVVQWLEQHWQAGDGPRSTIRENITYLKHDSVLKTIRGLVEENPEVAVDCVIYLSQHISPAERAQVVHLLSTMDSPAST

The IC50 is the point on the concentration scale where inhibition reaches its midpoint. Take `CCNC(=O)Nc1sc2nc(C)c(C)cc2c1C(=O)N1CCC(N2CCCC3(C2)N=C(C)N(C(C)C)C3=O)CC1` (stereo not shown) [Example 56]: the half-maximal inhibitory concentration (IC50) in data set [1] was in the range of 10 to 100 nM; in data set [2], 1 to 10 nM. Usually melting point stands for the temperature, or range, at which the solid turns liquid. In turn, `CNC(=O)Nc1sc2nc(C)ccc2c1C(=O)N1CCC(N2CCCC3(CCN(C(C)C)C3=O)C2)CC1` (stereo not shown) [Example 64, N-(3-{[4-(2-isopropyl-1-oxo-2,7-diazaspiro[4.5]dec-7-yl)piperidin-1-yl]carbonyl}-6-methylthieno[2,3-b]pyridin-2-yl)-N′-methylurea] yielded a melting point of 195 to 198 °C. `CNC(=O)Nc1sc2nc(C)ccc2c1C(=O)N1CCC(N2CCCC3(C2)CC(C)(C)OC3=O)CC1` (stereo not shown) [Example 78, N-(3-{[4-(3,3-dimethyl-1-oxo-2-oxa-7-azaspiro[4.5]dec-7-yl)piperidin-1-yl]carbonyl}-6-methylthieno[2,3-b]pyridin-2-yl)-N′-methylurea]: the figures for the IC50 in data set [1] and in data set [2] were 10 to 100 nM and 1 to 10 nM, respectively. The like results for `CCNC(=O)Nc1sc2nc(C)ccc2c1C(=O)N1CCC(N2CCCC3(C2)CC(C)(C)OC3=O)CC1` (stereo not shown) [Example 79, N-(3-{[4-(3,3-dimethyl-1-oxo-2-oxa-7-azaspiro[4.5]dec-7-yl)piperidin-1-yl]carbonyl}-6-methylthieno[2,3-b]pyridin-2-yl)-N′-ethylurea] were, in that order, 10 to 100 nM and 1 to 10 nM.

For the origin of these results see US20100093777A1 (Takeda Pharmaceutical Company Limited, priority 2007, published 2010).
